Measurements from PMC10374545, “A small molecule inhibitor of PTP1B and PTPN2 enhances T cell anti-tumor immunity” (Nature Communications, 2023).
“And” between values parts separate entries of the source, which are not always exact repeats. Equal entries are not always repeated.

Test system: AT3-OVA mammary tumors
Test: Tumor-infiltrating lymphocytes in AT3-OVA tumors (flow cytometry)
Type: in vivo, mouse
Design: GRZMB, single mice / GRZMB, individual mice: unit not given here
Experimental: Single-cell suspensions from spleens and lymph nodes were obtained as described previously. For the detection of intracellular cytokines and granzyme B, T cells were fixed and permeabilized with the BD Cytofix/Cytoperm kit according to the manufacturer’s instructions. Briefly, T cells were first surface stained with fluorophore-conjugated antibodies and then fixed followed by permeabilization on ice for 20 min. Fixed and permeabilized cells were stained for IFN-γ, TNF, and granzyme B for 45 min at room temperature. For the detection of intracellular FoxP3 the Foxp3/Transcription Factor Staining Buffer Set (eBioscience) was used according to the manufacturer’s instructions. Briefly, cells were fixed and permeabilized for 1 h on ice followed by intracellular staining at room temperature for 45 min. For the detection of serum cytokines, the BD CBA Mouse Inflammation Kit™ was used according to the manufacturers’ instructions.
Cells (1 × 10^6/10 µl) were stained with the specified antibodies on ice for 30 min in D-PBS supplemented with 2% FBS in the dark and analyzed using a Fortessa or Symphony A3 (BD Biosciences). Data was acquired using BD FACS DIVA Software v8.0.1 and analyzed using FlowJo10 (Tree Star Inc.) software. Lymphocytes were gated for eYFP^+ cells to discriminate between PTPN2 sufficient and PTPN2 negative cells after poly(I:C)-induced PTPN2-deletion in Mx1-Cre;Ptpn2^fl/fl mice. For cell quantification, known numbers of Flow-Count Fluorospheres (Beckman Coulter) were added to samples before analysis. Dead cells were excluded with propidium iodide (1 μg/ml; Sigma-Aldrich). Paraformaldehyde fixed dead cells were excluded with the LIVE/DEAD™ Fixable Near-IR Dead Cell Stain Kit (Thermo Fisher Scientific).
Tumor-bearing mice were sacrificed and tumors were excised and digested at 37 °C for 30 min using a cocktail of 1 mg/ml collagenase type IV (Worthington Biochemicals) and 0.02 mg/ml DNase I (Sigma-Aldrich) in DMEM supplemented with 2% (v/v) FBS. Cells were passed through a 70 μm cell strainer (BD Biosciences) twice and processed for flow cytometry. For assessing T cell activation, cells were surface stained with fluorophore-conjugated antibodies to CD62L, CD44, PD-1, and TIM-3. For the assessment of NK cells, B cells, myeloid-derived suppressor cells (MDSCs), dendritic cells (DCs), and tumor-associated macrophages, cells were surface stained with fluorophore-conjugated antibodies to NK1.1, TCRβ, CD19, CD11b, CD11c, F4/80, Ly6C and Ly6G. For the detection of intracellular cytokines TNF and IFNγ, T cells were stimulated with PMA (20 ng/ml; Sigma-Aldrich) and ionomycin (1 μg/ml; Sigma-Aldrich) in the presence of GolgiPlug™ and GolgiStop™ (BD Biosciences) for 4 h at 37 °C in complete T cell medium. For the intracellular detection of granzyme B, cells were processed untreated without the addition of BD GolgiPlug™ and BD GolgiStop™.

[1] = C57BL/6, CMP-182 10 mg, n=8, Figure 5C
[2] = C57BL/6, CMP-182 10 mg, n=8, Figure 5D, in % (unit assumed)
[3] = C57BL/6, CMP-182 10 mg, n=8, Figure 5E
[4] = tumor-infiltrating CD8+ T cells, 10 mg/kg i.v., Fig. 3D raw data, listed as CMP-182, 10 mg/kg

Q: With `CC(C)(O)CCOc1ccc2cc(O)c(N3CC(=O)NS3(=O)=O)c(F)c2c1` [Compound 182, 5-(1-Fluoro-3-hydroxy-7-(3-hydroxy-3-methylbutoxy)naphthalen-2-yl)−1,2,5-thiadiazolidin-3-one 1,1-dioxide] as the compound, how does the “TILs in AT3-OVA tumors” value (10 mg/kg i.v.) read?
A: increased TILs

Q: And the “accumulation of NK cells and B cells in AT3-OVA tumors” value (10 mg/kg i.v.)?
A: increased the accumulation

Q: And the “accumulation of Tregs and MDSCs in AT3-OVA tumors” value (10 mg/kg i.v.)?
A: promoted the accumulation

Q: What about the “MDSCs, individual mice” value (C57BL/6, CMP-182 10 mg, n=7, Figure 5E) of the same compound?
A: 48747.9 and 7096.22 and 17089.1 and 45092.3 and 47664.4 and 17646.1 and 31607.3

Q: What about the “CD4 EM, individual mice” value [1] of the same compound?
A: 134557 and 47922.8 and 133424 and 44428.9 and 44587.5 and 55436.2 and 44822.8 and 60817.2

Q: And the “CD8 EM, individual mice” value [1]?
A: 845401 and 186403 and 749030 and 169324 and 169003 and 192622 and 192657 and 178436

Q: What about the “GRZMB, individual mice” value (C57BL/6, CMP-182 10 mg, n=8, Figure 5D) of the same compound?
A: 25.6 and 28.7 and 25.8 and 29.2 and 51.4 and 33.2 and 36 and 28.4

Q: And the “IFNg TNF, individual mice” value [2]?
A: 24.8 and 30.6 and 32 and 36.2 and 36.6 and 36.4 and 24 and 30.7

Q: What about the “PD-1 TIM-3, individual mice” value [2] of the same compound?
A: 77.9 and 62.8 and 78.4 and 65.6 and 64.1 and 65.4 and 72.7 and 54.7

Q: And the “B cells, individual mice” value [3]?
A: 170944 and 179918 and 255526 and 193357 and 175857 and 145133 and 135399 and 202633

Q: What about the “NK cells, individual mice” value [3] of the same compound?
A: 58558.9 and 29752.3 and 40599.7 and 35764.2 and 59533.6 and 52754.4 and 30362.6 and 33110.9

Q: And the “Tregs, individual mice” value [3]?
A: 74115.4 and 20349.3 and 83872.7 and 21555.9 and 26849.8 and 29117.6 and 19831.6 and 35834.4

Q: And the “CD4 CM TILS (median)” value (Figure 3B, column B, n=8)?
A: 11958, n=8

Q: What about the “CD4 EM TILS (median)” value (Figure 3B, column B, n=8) of the same compound?
A: 57270, n=8

Q: And the “CD8 CM TILS (median)” value (Figure 3B, column B, n=8)?
A: 16228, n=8

Q: What about the “CD8 EM TILS (median)” value (Figure 3B, column B, n=8) of the same compound?
A: 275442, n=8

Q: And the “B cells TILS (median)” value (Figure 3C, column B, n=8)?
A: 364105, n=8

Q: What about the “MDSCs TILS (median)” value (Figure 3C, column B, n=8) of the same compound?
A: 8604, n=8

Q: What about the “Nk cells TILS (median)” value (Figure 3C, column B, n=8) of the same compound?
A: 52917, n=8

Q: What about the “Tregs TILS (median)” value (Figure 3C, column B, n=8) of the same compound?
A: 35282, n=8

Q: And the “GRZB TILS (median)” value (Figure 3D, column B, n=8)?
A: 35.20, n=8

Q: What about the “IFNg TNF TILS (median)” value (Figure 3D, column B, n=8) of the same compound?
A: 31.60, n=8

Q: What about the “PD-1 Lag-3 TILS (median)” value (Figure 3D, column B, n=8) of the same compound?
A: 35.10, n=8

Q: And the “PD-1 TIM-3 TILS (median)” value (Figure 3D, column B, n=8)?
A: 50.75, n=8

Q: And the “GRZMB, single mice” value [4]?
A: 38.7 and 39 and 35.1 and 25.9 and 27.7 and 35.3 and 28.6 and 36.2

Q: And the “PD-1 LAG-3, single mice” value [4]?
A: 39.6 and 36.2 and 34 and 27 and 25.2 and 33.5 and 41.6

Q: What about the “PD-1 TIM-3, single mice” value (tumor-infiltrating CD8+ T cells, 10 mg/kg i.v., Fig. 3D raw data, listed as CMP-182, 10 mg/kg, in % (unit assumed)) of the same compound?
A: 64.6 and 50.1 and 56.3 and 51.4 and 49.7 and 42.6 and 48.5 and 63
